Source: patent US20230072421A1, “TARGETED RADIOPHARMACEUTICALS FOR THE DIAGNOSIS AND TREATMENT OF PROSTATE CANCER” (Bayer AS, priority 2019, published 2023)

Tests used:
22Rv1 cells = assay: Cell proliferation assay (CellTiter-Glo, 5-day exposure), 22Rv1; assay type: cell-based; conditions: 22Rv1, 1000 cells/well, Th-227 labelled at 375 kBq/nmol, mean of 1 to 6 experiments
Description: (§1) Inhibition of cell proliferation of Thorium-227 labeled PMSA SMOL ligands was tested different prostate cancer cell lines, namely 22Rv1, VCaP, C4-2 (all from ATCC, Manassas, Va., USA) and LNCaP (DMSZ, Braunschweig). Cells were seeded using the following conditions in 384 well plates (Corning) in 30 μl of growth media at 4000 cells/well for VCaP cells and 1000 cells/well for 22Rv1, C4-2 and LNCaP cells.
(§2) Cells were cultivated an incubator at 37° C. and 5% C02 over night. […] In sister plates cell viability at treatment start (d=0) was determined using CellTiter-Glo® assay (CTG, Promega, Madison, Wis., USA), by adding 30 μl per well CTG solution, incubation for 10 min and reading of Luminescence in a PheraStarFSX instrument (BMG Labtech). After a 5-day exposure in the presenced of test compounds, cell viability of treated or untreated control cells was determined again using CellTiter-Glo® assay (Promega, Madison, Wis., USA). […] The DRC software is a Biobook Spreadsheet that was developed by Bayer AG and Bayer Business Services on the IDBS E-Workbook Suite platform (IDBS: ID Business Solutions Ltd., Guildford, UK).

C4-2 cells = assay: Cell proliferation assay (CellTiter-Glo, 5-day exposure), C4-2; assay type: cell-based; conditions: C4-2, 1000 cells/well, Th-227 labelled at 375 kBq/nmol, mean of 1 to 6 experiments
Description: as §1, §2

VCaP cells = assay: Cell proliferation assay (CellTiter-Glo, 5-day exposure), VCaP; assay type: cell-based; conditions: 4000 cells/well, Th-227 labelled at 375 kBq/nmol, mean of 1 to 6 experiments
Description: as §1, §2

[1] = biological target: T1, PSMA-expressing LNCaP cells (Homo sapiens, UniProt Q04609); assay: Binding competition assay against 3H-PSMA-617 on LNCaP cells; conditions: LNCaP cells; for remaining activity at 0.01 µM / remaining activity at 0.1 µM: 10 nM 3H-PSMA-617, 2 h at 37° C., triplicates; for remaining activity at 0.01 µM: competing non-radiolabeled compound 10 nM; for remaining activity at 0.1 µM: competing non-radiolabeled compound 100 nM
T1 construct: PSMA-expressing LNCaP cells; endogenous in cells; host or cells: LNCaP
Summary of the method: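 Compounds added to LNCaP cells in growth medium, 2 h at 37 °C, 5% CO2. After two ice-cold PBS washes, cells lysed in 0.3 M NaOH and bound radioactivity measured by liquid scintillation counting.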

T1 sequence (Q04609 whole entry): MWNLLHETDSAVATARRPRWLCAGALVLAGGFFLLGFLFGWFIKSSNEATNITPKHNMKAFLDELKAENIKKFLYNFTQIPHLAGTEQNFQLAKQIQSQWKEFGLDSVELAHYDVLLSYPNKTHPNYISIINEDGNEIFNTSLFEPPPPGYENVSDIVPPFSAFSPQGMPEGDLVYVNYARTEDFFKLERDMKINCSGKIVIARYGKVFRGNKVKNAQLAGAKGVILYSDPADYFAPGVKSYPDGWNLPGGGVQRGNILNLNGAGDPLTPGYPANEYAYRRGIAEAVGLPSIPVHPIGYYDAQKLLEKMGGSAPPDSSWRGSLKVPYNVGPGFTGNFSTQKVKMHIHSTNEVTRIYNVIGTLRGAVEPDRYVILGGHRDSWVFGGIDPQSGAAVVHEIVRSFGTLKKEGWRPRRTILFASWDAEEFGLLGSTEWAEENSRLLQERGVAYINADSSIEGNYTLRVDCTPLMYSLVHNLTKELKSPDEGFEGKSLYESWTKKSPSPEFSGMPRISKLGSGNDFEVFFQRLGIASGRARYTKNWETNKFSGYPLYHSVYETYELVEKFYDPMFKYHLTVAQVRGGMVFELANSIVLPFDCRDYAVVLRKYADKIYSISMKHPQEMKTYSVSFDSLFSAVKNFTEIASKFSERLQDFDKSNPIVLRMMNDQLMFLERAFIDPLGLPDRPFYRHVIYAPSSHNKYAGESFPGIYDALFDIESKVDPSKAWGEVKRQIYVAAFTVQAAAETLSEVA

Row | Structure (SMILES) | Proliferation assay on cancer cell lines by TTCs Default Pivot #3 IC50 [kBq/mL] 22Rv1 1000cells 375kBq/nmol (mean) (22Rv1 cells) [kBq/mL] | Proliferation assay on cancer cell lines by TTCs Default Pivot #3 IC50 [kBq/mL] C4-2 1000cells 375kBq/nmol (mean) (C4-2 cells) [kBq/mL] | Proliferation assay on cancer cell lines by TTCs Default Pivot #3 IC50 [kBq/mL] VCap 4000cells 375kBq/nmol (mean) (VCaP cells) [kBq/mL] | remaining activity at 0.01 µM [1] [%] | remaining activity at 0.1 µM [1] [%] | Non-specific binding: remaining binding of 3H-PSMA-617 in the presence of unlabeled PSMA-617 ([1]; unlabeled PSMA-617 at 5000 nM (500 fold excess))
1 | Cc1cc(C(=O)NCCN(CCCN(CCNC(=O)c2cc(C)n(CC(=O)NCC3CCC(C(=O)NC(Cc4ccc5ccccc5c4)C(=O)NCCCCC(NC(=O)NC(CCC(=O)O)C(=O)O)C(=O)O)CC3)c(=O)c2[O-])CCNC(=O)c2cc(C)n(CC(=O)NCC3CCC(C(=O)NC(Cc4ccc5ccccc5c4)C(=O)NCCCCC(NC(=O)NC(CCC(=O)O)C(=O)O)C(=O)O)CC3)c(=O)c2[O-])CCNC(=O)c2cc(C)n(CC(=O)NCC3CCC(C(=O)NC(Cc4ccc5ccccc5c4)C(=O)NCCCCC(NC(=O)NC(CCC(=O)O)C(=O)O)C(=O)O)CC3)c(=O)c2[O-])c([O-])c(=O)n1CC(=O)O.[227Th+4] (centres unmarked) [1-C trimer-227Th] | 0.74 | 2.24 | 3.11 |  |  | 
2 | CNc1cc(CC(NC(=O)C2CCC(CNC(=O)Cn3c(C)cc(C(=O)NCCN(CCCN(CCNC(=O)c4cc(C)n(CC(=O)O)c(=O)c4[O-])CCNC(=O)c4cc(C)n(CC(=O)NCC5CCC(C(=O)NC(Cc6cc(NC)c7ccccc7c6)C(=O)NCCCCC(NC(=O)NC(CCC(=O)O)C(=O)O)C(=O)O)CC5)c(=O)c4[O-])CCNC(=O)c4cc(C)n(CC(=O)O)c(=O)c4[O-])c([O-])c3=O)CC2)C(=O)NCCCCC(NC(=O)NC(CCC(=O)O)C(=O)O)C(=O)O)cc2ccccc12.[227Th+4] (centres unmarked) [37-C dimer-227Th] | 1.06 | 0.48 | 1.53 |  |  | 
3 | Cc1cc(C(=O)NCCN(CCCN(CCNC(=O)c2cc(C)n(CC(=O)O)c(=O)c2[O-])CCNC(=O)c2cc(C)n(CC(=O)NCC3CCC(C(=O)NC(Cc4cnc5ccccc5c4)C(=O)NCCCCC(NC(=O)NC(CCC(=O)O)C(=O)O)C(=O)O)CC3)c(=O)c2[O-])CCNC(=O)c2cc(C)n(CC(=O)O)c(=O)c2[O-])c([O-])c(=O)n1CC(=O)O.[227Th+4] (centres unmarked) [Example 22-C monomer-227Th] | 0.72 | 0.43 | 2.01 |  |  | 
4 | O=C([O-])CN1CCN(CC(=O)[O-])CCN(CC(=O)Nc2ccc(CC(=O)N[C@@H](Cc3ccc4ccccc4c3)C(=O)NCCCC[C@H](NC(=O)N[C@@H](CCC(=O)O)C(=O)O)C(=O)O)cc2)CCN(CC(=O)[O-])CC1.[227Th+4] [Example 23-B-227Th, [^227Th]Thorium-(4S,11S,15S)-4-[(naphthalen-2-yl)methyl]-2,5,13-trioxo-1-[4-(2-{4,7,10-tris[(carboxy-kappaO)methyl]-1,4,7,10-tetraazacyclododecan-1-yl-kappa^4N^1,N^4,N^7,N^10}acetamido)phenyl]-3,6,12,14-tetraazaheptadecane-11,15,17-tricarboxylate] | 0.96 | 1.32 | 3 |  |  | 
5 | O=C([O-])CN1CCN(CC(=O)[O-])CCN(CC(=O)NCc2ccc(C(=O)N[C@@H](Cc3ccc4ccccc4c3)C(=O)NCCCC[C@H](NC(=O)N[C@@H](CCC(=O)O)C(=O)O)C(=O)O)cc2)CCN(CC(=O)[O-])CC1.[227Th+4] [Example 24-B-227Th, [^227Th]Thorium (3S,10S,14S)-3-[(naphthalen-2-yl)methyl]-1,4,12-trioxo-1-{4-[(2-{4,7,10-tris[(carboxy-kappaO)methyl]-1,4,7,10-tetraazacyclododecan-1-yl-kappa^4N^1,N^4,N^7,N^10}acetamido)methyl]phenyl}-2,5,11,13-tetraazahexadecane-10,14,16-tricarboxylate] | 0.56 | 0.12 | 0.68 |  |  | 
6 | O=C([O-])CN1CCN(CC(=O)[O-])CCN(CC(=O)NCc2ccc(C(=O)N[C@@H](Cc3ccc4ccccc4c3)C(=O)NCCCC[C@H](NC(=O)N[C@@H](CCC(=O)O)C(=O)O)C(=O)O)nc2)CCN(CC(=O)[O-])CC1.[227Th+4] [Example 25-B-227Th, [^227Th]Thorium (3S,10S,14S)-3-[(naphthalen-2-yl)methyl]-1,4,12-trioxo-1-{5-[(2-{4,7,10-tris[(carboxy-kappaO)methyl]-1,4,7,10-tetraazacyclododecan-1-yl-kappa^4N^1,N^4,N^7,N^10}acetamido)methyl]pyridin-2-yl}-2,5,11,13-tetraazahexadecane-10,14,16-tricarboxylate] | 0.73 | 0.1 | 1.51 |  |  | 
7 | O=C(O)CC[C@H](NC(=O)N[C@@H](CCCCNC(=O)[C@@H](Cc1ccc2cccnc2c1)NC(=O)[C@H]1CC[C@H](CNC(=O)CN2CCN(CC(=O)O)CCN(CC(=O)O)CCN(CC(=O)O)CC2)CC1)C(=O)O)C(=O)O [Example 45-B, (3R,10S,14S)-1,4,12-trioxo-3-[(quinolin-7-yl)methyl]-1-[(1r,4S)-4-({2-[4,7,10-tris(carboxymethyl)-1,4,7,10-tetraazacyclododecan-1-yl]acetamido}methyl)cyclohexyl]-2,5,11,13-tetraazahexadecane-10,14,16-tricarboxylic acid] |  |  |  | 90 | 47 | 
8 | Cn1ccc(C(=O)NCCN(CCNC(=O)c2ccn(C)c(=O)c2O)CC(Cc2ccc(NC(=O)CCC(=O)N[C@H](CCCNC(=N)N)C(=O)N[C@H](CCCNC(=N)N)C(=O)NC[C@H]3CC[C@H](C(=O)N[C@@H](Cc4ccc5ccccc5c4)C(=O)NCCCCC(NC(=O)N[C@@H](CCC(=O)O)C(=O)O)C(=O)O)CC3)cc2)CN(CCNC(=O)c2ccn(C)c(=O)c2O)CCNC(=O)c2ccn(C)c(=O)c2O)c(O)c1=O (some centres unmarked) [Example 46-E] |  |  |  | 78 | 66 | 
9 | NC1CC2(C1)CC(C(=O)N[C@@H](Cc1ccc3ccccc3c1)C(=O)NCCCC[C@H](NC(=O)N[C@@H](CCC(=O)O)C(=O)O)C(=O)O)C2 (stereo partly drawn) [Example 47-A, (3S,10S,14S)-1-(6-aminospiro[3.3]heptan-2-yl)-3-[(naphthalen-2-yl)methyl]-1,4,12-trioxo-2,5,11,13-tetraazahexadecane-10,14,16-tricarboxylic acid] |  |  |  | 94 | 43 | 
10 | NC[C@H]1CC[C@H](C(=O)N[C@@H](Cc2ccc3ncccc3c2)C(=O)NCCCC[C@H](NC(=O)N[C@@H](CCC(=O)O)C(=O)O)C(=O)O)CC1 [Example 48-A, (3S,10S,14S)-1-[trans-4-(aminomethyl)cyclohexyl]-1,4,12-trioxo-3-[(quinolin-6-yl)methyl]-2,5,11,13-tetraazahexadecane-10,14,16-tricarboxylic acid] |  |  |  | 73 | 74 | 
11 | NCc1ccc(C(=O)N[C@@H](Cc2ccc3ncccc3c2)C(=O)NCCCC[C@H](NC(=O)N[C@@H](CCC(=O)O)C(=O)O)C(=O)O)nc1 [Example 49-A, (3S,10S,14S)-1-[5-(aminomethyl)pyridin-2-yl]-1,4,12-trioxo-3-[(quinolin-6-yl)methyl]-2,5,11,13-tetraazahexadecane-10,14,16-tricarboxylic acid] |  |  |  | 65 | 44 | 
12 | O=C(O)CC[C@H](NC(=O)N[C@@H](CCCCNC(=O)[C@H](Cc1ccc2ccccc2c1)NC(=O)[C@H]1CC[C@H](CNC(=O)CN2CCN(CC(=O)O)CCN(CC(=O)O)CCN(CC(=O)O)CC2)CC1)C(=O)O)C(=O)O [PSMA-617, reference compound] |  |  |  |  |  | below 5%
